In patent US5198445A, “Composition and use of substituted 3-thio-2-propynenitriles as industrial antimicrobials” (The Dow Chemical Company, priority 1992, dated 1993):
Converted amounts (≈) assume the structure as drawn. Read-outs that look alike come from different tables or passages of the source.

Columns and labels:
Candida albicans (Ca) = assay: MIC in malt yeast agar, Candida albicans; type: cell-based, Candida albicans ATCC 10231; conditions: read-out: Minimum Inhibitory Concentration, Ca
Description: (§1) The minimum inhibitory concentration (MIC) for the compounds listed in Table I is determined for 9 bacteria, using nutrient agar, and 7 yeast and fungi, using malt yeast agar. A one percent solution of the test compound is prepared in a mixture of acetone and water. Nutrient agar is prepared at pH 6.8, representing a neutral medium, and at pH 8.2, representing an alkaline medium. The nutrient agars are prepared by adding 23 g of nutrient agar to one-liter of deionized water. In addition, the alkaline medium is prepared by adjusting a 0.04M solution of N-[tris-(hydroxymethyl)methyl]-glycine buffered deionized water with concentrated sodium hydroxide to a pH of […]. Malt yeast agar is prepared by adding 3 g yeast extract and 45 g malt agar per liter of deionized water. The specific agar is dispensed in 30 ml aliquots into 25×200 mm test tubes, capped and autoclaved for 15 minutes at 115° C. The test tubes containing the agar are cooled in a water bath until the temperature of the agar is 48° C. Then, an appropriate amount of the one percent solution of the test compound is added (except in the controls where no compound is added) to the respective test tubes so that the final concentrations are 500, 250, 100, 50, 25, 10, 5, 2.5, 1.0 and zero parts per million of the test compound in the agar, thus having a known concentration of test compound dispersed therein. The contents of the test tubes are then transferred to respective petri plates. After drying for 24 hours, the petri plates containing nutrient agar are inoculated with bacteria and those containing malt yeast agar are inoculated with yeast and fungi.
(§2) The inoculation with the yeast and fungi is accomplished as follows. Cultures of yeast and fungi are incubated for seven days on malt yeast agar at 30° C. These cultures are used to prepare suspensions by the following procedure. A suspension of each organism is prepared by adding 10 ml of sterile saline and 10 microliters of octylphenoxy polyethoxy ethanol (TRITON® X-100, a trademark of Rohm & Haas Company) to the agar slant of yeast or fungi. The sterile saline/octylphenoxy polyethoxy ethanol solution is then agitated with a sterile swab to suspend the microorganism grown on the slant. Each resulting suspension is diluted into sterile saline (1 part suspension: 9 parts sterile saline). Aliquots of these dilutions are placed in individual wells of Steer's Replicator and petri plates inoculated as previously described. The petri plates are incubated at 30° C. and read after 48 hours for yeast and 72 hours for fungi.
(§3) Table II lists the bacteria, yeast and fungi used in the MIC test described above along with their respective American Type Culture Collection (ATCC) identification numbers.
(§4) The following MIC and MEC antimicrobial tests, whose results are shown in Tables XIII-XVII, are performed using the same methods as described hereinabove.

Proteus vulgaris (Pv) = assay: MIC in nutrient agar, Proteus vulgaris; type: cell-based, Proteus vulgaris ATCC 881
Description: as §1
(§5) The inoculation with bacteria is accomplished by using the following procedure. Twenty-four hour-cultures of each of the bacteria are prepared by incubating the respective bacteria in tubes containing nutrient broth for 24 hours at 30° C. in a shaker. Dilutions of each of the 24 hour-cultures are made so that nine separate suspensions (one for each of the nine test bacteria) are made, each containing 10^8 colony forming units (CFU) per ml of suspension of a particular bacteria. Aliquots of 0.3 ml of each of the bacterial suspensions are used to fill the individual wells of Steer's Replicator. For each microbial suspension, 0.3 ml was used to fill three wells (i.e., three wells of 0.3 ml each) so that for the nine different bacteria, 27 wells are filled. The Steer's Replicator is then used to inoculate both the neutral and alkaline pH nutrient agar petri plates.
(§6) The inoculated petri plates are incubated at 30° C. for 48 hours and then read to determine if the test compound which is incorporated into the agar prevented growth of the respective bacteria.
as §3, §4

Escherichia coli (Ec) = assay: MIC in nutrient agar, Escherichia coli; type: cell-based, Escherichia coli ATCC 11229
Description: as §1, §5, §6, §3, §4

Aspergillus niger (An) = assay: MIC in malt yeast agar, Aspergillus niger; type: cell-based, Aspergillus niger ATCC 16404; conditions: read-out: Minimum Inhibitory Concentration, An
Description: as §1, §2, §3, §4

[1] = system: Staphylococcus aureus (Sa); assay: MIC in nutrient agar, Staphylococcus aureus; type: cell-based, Staphylococcus aureus ATCC 6538
Description: as §1, §5, §6, §3, §4

Fusarium oxysporum (Fo) = assay: MIC in malt yeast agar, Fusarium oxysporum; type: cell-based, Fusarium oxysporum ATCC 48112; conditions: read-out: Minimum Inhibitory Concentration, Fo
Description: as §1, §2, §3, §4

[2] = system: Pseudomonas aeruginosa (PRD-10); assay: MIC in nutrient agar, Pseudomonas aeruginosa PRD-10; type: cell-based, Pseudomonas aeruginosa ATCC 15442
Description: as §1, §5, §6, §3, §4

[3] = system: Penicillium chrysogenum (Pc); assay: MIC in malt yeast agar, Penicillium chrysogenum; type: cell-based, Penicillium chrysogenum ATCC 9480; conditions: read-out: Minimum Inhibitory Concentration, Pc
Description: as §1, §2, §3, §4

[4] = system: Enterobacter aerogenes (Ea); assay: MIC in nutrient agar, Enterobacter aerogenes; type: cell-based, Enterobacter aerogenes ATCC 13048
Description: as §1, §5, §6, §3, §4

[5] = system: Aureobasidium pullulan (Ap); assay: MIC in malt yeast agar, Aureobasidium pullulan; type: cell-based, Aureobasidium pullulan ATCC 16622; conditions: read-out: Minimum Inhibitory Concentration, Ap
Description: as §1, §2, §3, §4

[6] = system: Klebsiella pneumoniae (Kp); assay: MIC in nutrient agar, Klebsiella pneumoniae; type: cell-based, Klebsiella pneumoniae ATCC 8308
Description: as §1, §5, §6, §3, §4

Bacillus subtilis (Bs) = assay: MIC in nutrient agar, Bacillus subtilis; type: cell-based, Bacillus subtilis ATCC 8473
Description: as §1, §5, §6, §3, §4

[7] = system: Pseudomonas aeruginosa (Pa); assay: MIC in nutrient agar, Pseudomonas aeruginosa; type: cell-based, Pseudomonas aeruginosa ATCC 10145
Description: as §1, §5, §6, §3, §4

[8] = system: Saccharomyces cerevisiae (Sc); assay: MIC in malt yeast agar, Saccharomyces cerevisiae; type: cell-based, Saccharomyces cerevisiae ATCC 4105; conditions: read-out: Minimum Inhibitory Concentration, Sc
Description: as §1, §2, §3, §4

Trichoderma viride (Tv) = assay: MIC in malt yeast agar, Trichoderma viride; type: cell-based, Trichoderma viride ATCC 8678; conditions: read-out: Minimum Inhibitory Concentration, Tv
Description: as §1, §2, §3, §4

[9] = system: Salmonella choleraesuis (Sc); assay: MIC in nutrient agar, Salmonella choleraesuis; type: cell-based, Salmonella choleraesuis ATCC 10708
Description: as §1, §5, §6, §3, §4

[10] = pH 6.8, read-out: Minimum Inhibitory Concentration, Pv
[11] = pH 8.2, read-out: Minimum Inhibitory Concentration, Pv
[12] = Escherichia coli, pH 6.8, read-out: Minimum Inhibitory Concentration, Ec
[13] = Escherichia coli, pH 8.2, read-out: Minimum Inhibitory Concentration, Ec
[14] = Pseudomonas aeruginosa, pH 6.8, read-out: Minimum Inhibitory Concentration, PRD
[15] = Klebsiella aerogenes, pH 6.8, read-out: Minimum Inhibitory Concentration, Ea
[16] = Klebsiella aerogenes, pH 8.2, read-out: Minimum Inhibitory Concentration, Ea
[17] = pH 6.8, read-out: Minimum Inhibitory Concentration, Kp
[18] = pH 8.2, read-out: Minimum Inhibitory Concentration, Kp
[19] = pH 6.8, read-out: Minimum Inhibitory Concentration, Pa
[20] = pH 8.2, read-out: Minimum Inhibitory Concentration, Pa
[21] = Salmonella enterica, CHOLERAESUIS, pH 6.8, read-out: Minimum Inhibitory Concentration, Sc
[22] = Salmonella enterica, CHOLERAESUIS, pH 8.2, read-out: Minimum Inhibitory Concentration, Sc
[23] = Staphylococcus aureus, pH 6.8; read-out: Minimum Inhibitory Concentration, Sa
[24] = Staphylococcus aureus, pH 8.2; read-out: Minimum Inhibitory Concentration, Sa
[25] = Pseudomonas aeruginosa, pH 8.2; read-out: Minimum Inhibitory Concentration, PRD
[26] = Bacillus subtilis, pH 6.8; read-out: Minimum Inhibitory Concentration, Bs
[27] = Bacillus subtilis, pH 8.2; read-out: Minimum Inhibitory Concentration, Bs

Compound | MIC (Proteus vulgaris (Pv); [10]) [µg/mL] | MIC (Proteus vulgaris (Pv); [11]) [µg/mL] | MIC (Escherichia coli (Ec); [12]) [µg/mL] | MIC (Escherichia coli (Ec); [13]) [µg/mL] | MIC [2, 14] [µg/mL] | MIC [4, 15] [µg/mL] | MIC [4, 16] [µg/mL] | MIC [6, 17] [µg/mL] | MIC [6, 18] [µg/mL] | MIC [7, 19] [µg/mL] | MIC [7, 20] [µg/mL] | MIC [8] [µg/mL] | MIC [9, 21] [µg/mL] | MIC [9, 22] [µg/mL] | MIC (Candida albicans (Ca); malt yeast agar) [µg/mL] | MIC (Aspergillus niger (An); malt yeast agar) [µg/mL] | MIC [1, 23] [µg/mL] | MIC [1, 24] [µg/mL] | MIC (Fusarium oxysporum (Fo); malt yeast agar) [µg/mL] | MIC [2, 25] [µg/mL] | other results
CS/C=C(/Cl)C#N [Compound H, E isomer of 2-chloro-3-(methylthio)-2-propenenitrile] | > 500 | 250 (≈ 1870 µM) | > 500 | 500 (≈ 3740 µM) | > 500 | > 500 | 500 (≈ 3740 µM) | > 500 | 500 (≈ 3740 µM) | > 500 | 250 (≈ 1870 µM) | 500 (≈ 3740 µM) | > 500 | 500 (≈ 3740 µM) |  |  |  |  |  |  | MIC (Candida albicans (Ca)): 250 µg/mL (≈ 1870 µM); MIC (Aspergillus niger (An)): 250 µg/mL (≈ 1870 µM); MIC ([1]; Staphylococcus aureus, pH 6.8, read-out: Minimum Inhibitory Concentration, Sa): > 500 µg/mL; MIC ([1]; Staphylococcus aureus, pH 8.2, read-out: Minimum Inhibitory Concentration, Sa): 500 µg/mL (≈ 3740 µM); MIC (Fusarium oxysporum (Fo)): 100 µg/mL (≈ 748 µM); MIC ([2]; Pseudomonas aeruginosa, pH 8.2, read-out: Minimum Inhibitory Concentration, PRD): 250 µg/mL (≈ 1870 µM); MIC [3]: 100 µg/mL (≈ 748 µM); MIC [5]: 250 µg/mL (≈ 1870 µM); MIC (Bacillus subtilis (Bs); Bacillus subtilis, pH 6.8, read-out: Minimum Inhibitory Concentration, Bs): > 500 µg/mL; MIC (Bacillus subtilis (Bs); Bacillus subtilis, pH 8.2, read-out: Minimum Inhibitory Concentration, Bs): 500 µg/mL (≈ 3740 µM); MIC (Trichoderma viride (Tv)): 250 µg/mL (≈ 1870 µM)
CCCCCCCCCCSC#CC#N [E, 3-decylthio-2-propynenitrile] | > 500 | > 500 | > 500 |  | > 500 | > 500 | > 500 | > 500 | > 500 | > 500 | 500 (≈ 2240 µM) | 25 (≈ 112 µM) | > 500 | > 500 | > 500 | > 500 | 25 (≈ 112 µM) | 25 (≈ 112 µM) | 500 (≈ 2240 µM) | 25 (≈ 112 µM) | MIC (Escherichia coli (Ec); Escherichia coli, pH 8.2; read-out: Minimum Inhibitory Concentration, Ec): 100 µg/mL (≈ 448 µM); MIC ([3]; malt yeast agar): 500 µg/mL (≈ 2240 µM); MIC ([5]; malt yeast agar): > 500 µg/mL; MIC (Bacillus subtilis (Bs); [26]): 100 µg/mL (≈ 448 µM); MIC (Bacillus subtilis (Bs); [27]): 25 µg/mL (≈ 112 µM); MIC (Trichoderma viride (Tv); malt yeast agar): 500 µg/mL (≈ 2240 µM)
CCCCCCCCCCCCSC#CC#N [F, 3-dodecylthio-2-propynenitrile] | > 500 | > 500 |  | > 500 |  |  |  | > 500 | > 500 | > 500 | 500 (≈ 1990 µM) |  |  |  | > 500 | > 500 | > 500 | 25 (≈ 99.4 µM) | > 500 | 100 (≈ 398 µM) | MIC (Escherichia coli (Ec); Escherichia coli, pH 6.8; read-out: Minimum Inhibitory Concentration, Ec): > 500 µg/mL; MIC ([2]; Pseudomonas aeruginosa, pH 6.8; read-out: Minimum Inhibitory Concentration, PRD): > 500 µg/mL; MIC ([3]; malt yeast agar): 500 µg/mL (≈ 1990 µM); MIC ([4]; Klebsiella aerogenes, pH 6.8; read-out: Minimum Inhibitory Concentration, Ea): > 500 µg/mL; MIC ([4]; Klebsiella aerogenes, pH 8.2; read-out: Minimum Inhibitory Concentration, Ea): > 500 µg/mL; MIC ([5]; malt yeast agar): > 500 µg/mL; MIC (Bacillus subtilis (Bs); [26]): 100 µg/mL (≈ 398 µM); MIC (Bacillus subtilis (Bs); [27]): 100 µg/mL (≈ 398 µM); MIC ([8]; malt yeast agar): > 500 µg/mL; MIC (Trichoderma viride (Tv); malt yeast agar): > 500 µg/mL; MIC ([9]; Salmonella enterica, CHOLERAESUIS, pH 6.8; read-out: Minimum Inhibitory Concentration, Sc): > 500 µg/mL; MIC ([9]; Salmonella enterica, CHOLERAESUIS, pH 8.2; read-out: Minimum Inhibitory Concentration, Sc): > 500 µg/mL
